Measured values taken from PMC6095874, “Discovery of cationic nonribosomal peptides as Gram-negative antibiotics through global genome mining” (Nature Communications, 2018).
In brackets after ≈: the same amount, converted by molar mass. Where a SMILES comes first, the peptide text is derived from it. Bridges are numbered along the chain shown (N, C = ends). [ ]: non-standard residue; d: D form. The star is where a group is joined. ξ: configuration not given here. Hexanoyl(4ξ-Me) = CCC(C)CCC(=O)*; dOrn = NCCC[C@@H](N)C(=O)O; Orn = NCCC[C@H](N)C(=O)O

Assays:
[1] = tested on: Colistin-resistant E. coli (E. coli ATCC 25922 carrying mcr-1); test: MIC by broth microdilution; type: cell-based, Escherichia coli; settings: MHB, 37 °C, 24 h
Experimental: (§1) MIC was determined by broth microdilution according to CLSI guidelines. The test medium for most species was Mueller–Hinton broth (MHB). Bacteria were grown overnight to early stationary phase and adjusted in MHB to 5.0 × 10^5 c.f.u. mL^−1 in the wells of 96-well microtiter plates (Falcon® 96-Well Flat-Bottom Microplate, Tissue Culture-Treated), mixed with varying concentrations of test compounds and incubated at 37 °C for 24 h. Cell growth was evaluated by measuring the optical density at 595 nm (Thermo Scientific Multiskan FC multiplate photometer) (Waltham, MA, USA), and the MIC was defined as the lowest compound concentration at which no bacterial growth was observed. MHBs containing 10% fetal bovine serum (Gibco), 21 mM MgCl, or 1.0 mg mL^−1 LPS (lipopolysaccharides from E. coli O55:B5, Sigma-Aldrich) was used to test their inhibitory effects.

Acinetobacter baumannii = test: MIC by broth microdilution; type: cell-based; settings: Supplementary Table 1
Experimental: as §1

Bacillus subtilis 168 = test: MIC by broth microdilution; type: cell-based; settings: Supplementary Table 1; Bs = B. subtilis 168
Experimental: as §1

[2] = tested on: Enterobacter cloacae NRRL-B-413; test: MIC by broth microdilution; type: cell-based; settings: Supplementary Table 1; En = Enterobacter cloacae NRRL-B-413
Experimental: as §1

[3] = tested on: Klebsiella pneumoniae NRRL-B-408; test: MIC by broth microdilution; type: cell-based; settings: Supplementary Table 1; Kp = Klebsiella pneumoniae NRRL-B-408
Experimental: as §1

[4] = tested on: K. pneumoniae NRRL-B-3521; type: cell-based, Klebsiella pneumoniae; settings: NRRL-B-3521, 24 h
Experimental: as §1

E. coli = test: Lysis assay; type: cell-based, Escherichia coli; settings: ten times the MIC, culture OD600 = 1.0, 24 h
Experimental: An overnight culture of E. coli TOP10 cells was diluted 1:10,000 in MHB and incubated at 37 °C with agitation at 180 rpm for 2 h (early exponential). The bacteria were then challenged with brevicidine (20 μg mL^−1), laterocidine (20 μg mL^−1), or polymyxin B (10 μg mL^−1) at ten times the MIC at room temperature without shaking. An untreated sample of cells was used as a negative control. At intervals, 10 μL aliquots were removed, centrifuged at 10,000 × g for 1 min and resuspended in 1.0 mL of sterile PBS. Tenfold serially diluted suspensions were plated on MHB agar plates and incubated at 37 °C overnight. Colonies were counted and the number of c.f.u. per mL was calculated. For analysis of lysis, 300 μL of culture (OD600 = 1.0) were treated with antibiotics at ten times the MIC for 24 h. Experiments were performed in triplicate.

[5] = Peptide binding to LPS by isothermal titration calorimetry; set-up: species or system Escherichia coli; settings: 37 °C
Experimental: Microcalorimetric experiments of peptide binding to LPS were performed on an MCS isothermal titration calorimeter (Microcal, Northampton, MA) at 37 °C. LPS was prepared as a 50 µM aqueous suspension in 20 mM HEPES buffer (pH 7.0) by suspension, sonication, and temperature cycling between 5 and 70 °C. This suspension was stored at 4 °C overnight prior to use. Aliquots of 100 µM peptide solutions (brevicidine and polymyxin B) were prepared in the same buffer and all solutions were degassed prior to use by stirring under vacuum for 5 min at 37 °C. After thermal equilibration, 5 µL aliquots of the peptide solution were added every 3 min into the lipid-containing cell at 37 °C with constant stirring. The change in heat during the titration steps was registered in real time and raw data were processed using the Origin® 7 software provided with the instrument. In control experiments, the corresponding peptide solution (or LPS solution) was injected into the buffer without LPS (or without peptide).

E. coli ATCC 25922 = test: Neutropenic mouse thigh infection model; type: in vivo
Experimental: Given the low risk of resistance and the attractive mode of action of 1–2, an animal efficacy study was then performed in a mouse thigh model. Mice were intramuscularly infected with 1.50 × 10^6 c.f.u. of E. coli ATCC 25922. Two hours post infection, brevicidine (30 mg kg^−1) or laterocidine (15 mg kg^−1) was subcutaneously injected at two doses. […] In particular, compound 1 was highly efficacious in mice infected with E. coli and caused a 5 log10 reduction in c.f.u. in the thigh compared to the vehicle control after 24 h (Fig. 4f).
In vivo activities of brevicidine and laterocidine were tested using the mouse thigh infection model. Animal studies were performed by Pharmacology Discovery Services Taiwan Ltd. in general accordance with standard guidelines on animal welfare[38] in an AAALAC-accredited facility. The protocol was reviewed and approved by the Institutional Animal Care and Use Committee. Groups of five female-specific pathogen-free ICR (CD-1) mice weighing 22 ± 2 g (~5 weeks of age) were used. Animals were immunosuppressed with two intraperitoneal injections of cyclophosphamide, the first at 150 mg kg^−1 4 days before infection (day −4) and the second at 100 mg kg^−1 1 day before infection (day −1). On day 0, animals were inoculated intramuscularly (0.1 mL per thigh) in the right thigh with an E. coli ATCC 25922 suspension. Vehicle (10% DMSO, 1% Tween 80, 0.9% NaCl) and antibiotics were then subcutaneously injected 2 and 8 h later. Due to the limited availability of compounds 1–2, only one concentration of 1 (30 mg kg^−1) or 2 (15 mg kg^−1) was used in the present study. Precisely 26 h after inoculation, animals were euthanized by CO2 asphyxiation before their right thigh muscles were harvested. The removed muscles were homogenized in 5 mL of PBS, pH 7.4, with a Polytron homogenizer. Homogenates in the amount of 0.1 mL were used for serial tenfold dilutions and plated onto a nutrient agar medium for colony count (in c.f.u. g^−1) determination. No randomization or blinding was necessary for the animal infection models, and no samples were excluded.

Human HeLa cells = settings: concentrations up to 128 μg mL^−1, 48 h, 37 °C, MTT, absorbance 570 nm
Experimental: Human HeLa cells were used in the assay. Ninety μL of 1 × 10^5 mL^−1 cells were placed into the wells of 96-microwell plates. After 12 h, 10 μL of a medium containing test compounds at various concentrations were added to the cells which were then incubated at 37 °C for 48 h. Afterward, the supernatant was removed and 20 μL of MTT (3-(4,5-Dimethylthiazol-2-yl)-2,5-Diphenyltetrazolium Bromide) (2.5 mg mL^−1) in PBS were added to each well. After incubation at 37 °C for 3 h, 80 μL of dimethyl sulfoxide (DMSO) were added to each well and incubated for an additional 15 min. The absorbance was then measured at 570 nm with a Thermo Scientific Multiskan FC multiplate photometer.

## CCC(C)CCC(=O)N[C@H](CC(N)=O)C(=O)N[C@H](Cc1ccc(O)cc1)C(=O)N[C@H](Cc1c[nH]c2ccccc12)C(=O)N[C@H](CCCN)C(=O)N[C@@H](CCCN)C(=O)NCC(=O)N[C@H](CCCN)C(=O)N[C@@H](Cc1c[nH]c2ccccc12)C(=O)N[C@@H]1C(=O)N[C@@H]([C@@H](C)CC)C(=O)NCC(=O)N[C@@H](CO)C(=O)O[C@@H]1C (stereo partly drawn) [Compound 1, brevicidine] ({Hexanoyl(4ξ-Me)}-[dN][dY][dW][dOrn][Orn]G[dOrn]WTIGS; ester 9-C)
[1]
  MIC: 2 mg/L (≈ 1.32 µM)
Acinetobacter baumannii
  MIC, Ab: 16 mg/L (≈ 10.5 µM)
Bacillus subtilis 168
  MIC, Bs: 32 mg/L (≈ 21.1 µM)
[2]
  MIC, En: 2 mg/L (≈ 1.32 µM)
[3]
  MIC, Kp: 2 mg/L (≈ 1.32 µM)
[4]
  MIC: 4 mg/L (≈ 2.63 µM)
E. coli
  lysis of E. coli cells: completely lysed
[5]; 20 mM HEPES pH 7.0
  binding to LPS (ITC): strong binding to LPS
[5]; ITC, 50 µM LPS in 20 mM HEPES pH 7.0, 100 µM peptide, read-out: dissociation constant Kd for LPS
  Kd: 6.5 µM
E. coli ATCC 25922; 30 mg kg^−1 subcutaneous at 2 and 8 h post infection, neutropenic ICR mice (n = 5), after 24 h
  reduction in c.f.u. in the thigh compared to the vehicle control: 5 log10
E. coli ATCC 25922; brevicidine 30 mg kg^−1 twice s.c., five mice, after 26 h, Mann–Whitney P < 0.01
  viable bacteria in thigh: reduced number of viable bacteria
Human HeLa cells
  toxicity against the human cell line HeLa: nor showed significant toxicity
